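Each compound was tested at five concentrations against cells in 96-well plates for 48 hours. GI50: concentration for 50% inhibition of growth. TGI denotes the concentration required for complete inhibition of growth.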
Columns and labels:
Assay in all cases: NCI tumour cell line growth inhibition, 48 h
[1] = tested on: SK-MEL-5 melanoma
[2] = tested on: 786-0 renal
[3] = tested on: K-562 leukemia
[4] = tested on: COLO 205 colon
[5] = tested on: SN12C renal
[6] = tested on: BT-549 breast
[7] = tested on: HCT-15 colon
[8] = tested on: SNB-75 CNS
[9] = tested on: NCI/ADR-RES ovarian
[10] = tested on: KM12 colon
[11] = tested on: HOP-92 NSCLC
[12] = tested on: SF-295 CNS
[13] = tested on: T-47D breast
[14] = tested on: M14 melanoma
[15] = tested on: MCF7 breast
[16] = tested on: EKVX NSCLC
[17] = tested on: SW-620 colon
[18] = tested on: HL-60(TB) leukemia
[19] = tested on: CCRF-CEM leukemia
[20] = tested on: SR leukemia
[21] = tested on: DU-145 prostate
[22] = tested on: HCC-2998 colon
[23] = tested on: OVCAR-4 ovarian
[24] = tested on: ACHN renal
[25] = tested on: MDA-MB-435
[26] = tested on: NCI-H226 lung
[27] = tested on: SK-MEL-2 melanoma
[28] = tested on: SNB-19 CNS
[29] = tested on: RXF 393 renal
[30] = tested on: OVCAR-8 ovarian
[31] = tested on: A498 renal
[32] = tested on: NCI-H23 lung
[33] = tested on: HT29 colon
[34] = tested on: MDA-MB-231 breast
[35] = tested on: A549 NSCLC
[36] = tested on: OVCAR-5 ovarian
[37] = tested on: SK-MEL-28 melanoma
[38] = tested on: HS 578T breast
[39] = tested on: RPMI-8226 leukemia
[40] = tested on: SF-539 CNS
[41] = tested on: TK-10 renal
[42] = tested on: UO-31 renal
[43] = tested on: MOLT-4 leukemia
[44] = tested on: HOP-62 NSCLC
[45] = tested on: UACC-62 melanoma
[46] = tested on: U251 CNS
[47] = tested on: UACC-257 melanoma
[48] = tested on: MALME-3M melanoma
[49] = tested on: CAKI-1 renal
[50] = tested on: PC-3 prostate
[51] = tested on: HCT-116 colon
[52] = tested on: SK-OV-3 ovarian
[53] = tested on: SF-268 CNS
[54] = tested on: IGROV1 ovarian
[55] = tested on: NCI-H522 lung
[56] = tested on: OVCAR-3 ovarian
[57] = tested on: NCI-H460 lung

Cc1ccc(-c2nnc(SCc3ccc(O)c4ncccc34)o2)cc1
GI50 [1]: 0.844 µM | TGI [1]: 6.95 µM | GI50 [2]: 1.61 µM | TGI [2]: 6.81 µM | GI50 [3]: 1.14 µM | TGI [3]: 66.3 µM | GI50 [4]: 8.41 µM | TGI [4]: > 100 µM | GI50 [5]: 0.966 µM | TGI [5]: > 100 µM | GI50 [6]: 1.06 µM | TGI [6]: > 100 µM | GI50 [7]: 0.492 µM | TGI [7]: > 100 µM | GI50 [8]: 0.283 µM | TGI [8]: 3.93 µM | GI50 [9]: 0.706 µM | TGI [9]: 7.02 µM | GI50 [10]: 1.91 µM | TGI [10]: > 100 µM | GI50 [11]: 0.435 µM | TGI [11]: 4.08 µM | GI50 [12]: 1.02 µM | TGI [12]: 5.78 µM | GI50 [13]: 1.83 µM | TGI [13]: 7.4 µM | GI50 [14]: 0.816 µM | TGI [14]: 5.49 µM | GI50 [15]: 0.388 µM | TGI [15]: > 100 µM | GI50 [16]: 1.73 µM | TGI [16]: 9.86 µM | GI50 [17]: 1.06 µM | TGI [17]: > 100 µM | GI50 [18]: 0.52 µM | TGI [18]: 10.2 µM | GI50 [19]: 0.518 µM | TGI [19]: > 100 µM | GI50 [20]: 0.568 µM | TGI [20]: 42.7 µM | GI50 [21]: 1.46 µM | TGI [21]: > 100 µM | GI50 [22]: 0.933 µM | TGI [22]: > 100 µM | GI50 [23]: 2.45 µM | TGI [23]: > 100 µM | GI50 [24]: 0.649 µM | TGI [24]: 2.32 µM | GI50 [25]: 0.5 µM | TGI [25]: > 100 µM | GI50 [26]: 2.42 µM | TGI [26]: > 100 µM | GI50 [27]: 2.24 µM | TGI [27]: 39.4 µM | GI50 [28]: 0.513 µM | TGI [28]: 14.3 µM | GI50 [29]: 1.12 µM | TGI [29]: 32.2 µM | GI50 [30]: 0.85 µM | TGI [30]: > 100 µM | GI50 [31]: 1.08 µM | TGI [31]: 13.6 µM | GI50 [32]: 1.47 µM | TGI [32]: 13 µM | GI50 [33]: 6.43 µM | TGI [33]: > 100 µM | GI50 [34]: 2.12 µM | TGI [34]: 27.5 µM | GI50 [35]: 1.95 µM | TGI [35]: > 100 µM | GI50 [36]: 4.82 µM | TGI [36]: > 100 µM | GI50 [37]: 1.04 µM | TGI [37]: > 100 µM | GI50 [38]: 0.57 µM | TGI [38]: > 100 µM | GI50 [39]: 0.648 µM | TGI [39]: > 100 µM | GI50 [40]: 0.561 µM | TGI [40]: 5.92 µM | GI50 [41]: 1.28 µM | TGI [41]: 9.24 µM | GI50 [42]: 0.567 µM | TGI [42]: 3.24 µM | GI50 [43]: 0.877 µM | TGI [43]: > 100 µM | GI50 [44]: 1.06 µM | TGI [44]: 3.83 µM | GI50 [45]: 1.76 µM | TGI [45]: 4.74 µM | GI50 [46]: 0.444 µM | TGI [46]: > 100 µM | GI50 [47]: 2.33 µM | TGI [47]: 9.3 µM | GI50 [48]: 1.96 µM | TGI [48]: 8.23 µM | GI50 [49]: 1.8 µM | TGI [49]: 7.72 µM | GI50 [50]: 0.457 µM | TGI [50]: > 100 µM | GI50 [51]: 0.537 µM | TGI [51]: > 100 µM | GI50 [52]: 1.98 µM | TGI [52]: 6.9 µM | GI50 [53]: 0.503 µM | TGI [53]: > 100 µM | GI50 [54]: 1.55 µM | TGI [54]: 9.86 µM | GI50 [55]: 2.29 µM | TGI [55]: > 100 µM

C#C[C@]1(O)CC[C@H]2[C@@H]3CC=C4c5sc(Nc6cc(C)cc(C)c6)nc5CC[C@]4(C)[C@H]3CC[C@@]21C
GI50 [1]: 1.65 µM | TGI [1]: 3.15 µM | GI50 [2]: 0.429 µM | TGI [2]: 2.28 µM | GI50 [3]: 1.58 µM | TGI [3]: 4.33 µM | GI50 [4]: 2.42 µM | TGI [4]: 5.9 µM | GI50 [5]: 8.38 µM | TGI [5]: 30.5 µM | GI50 [6]: 0.556 µM | TGI [6]: 5.82 µM | GI50 [7]: 1.88 µM | TGI [7]: 5.58 µM | GI50 [8]: 0.547 µM | TGI [8]: 7.91 µM | GI50 [56]: 3.59 µM | TGI [56]: 16.9 µM | GI50 [9]: 4.86 µM | TGI [9]: 45.5 µM | GI50 [10]: 2.6 µM | TGI [10]: 8.05 µM | GI50 [11]: 3.17 µM | TGI [11]: 13.6 µM | GI50 [12]: 0.297 µM | TGI [12]: 0.966 µM | GI50 [13]: 3.4 µM | TGI [13]: 85.8 µM | GI50 [14]: 1.58 µM | TGI [14]: 6.87 µM | GI50 [15]: 1.61 µM | TGI [15]: 6.22 µM | GI50 [16]: 3.12 µM | TGI [16]: 31.3 µM | GI50 [17]: 2.12 µM | TGI [17]: 4.89 µM | GI50 [18]: 1.29 µM | TGI [18]: 5.55 µM | GI50 [19]: 1.7 µM | TGI [19]: 8.43 µM | GI50 [20]: 1.17 µM | TGI [20]: 5.88 µM | GI50 [21]: 4.18 µM | TGI [21]: 21.8 µM | GI50 [22]: 5.47 µM | TGI [22]: 23 µM | GI50 [23]: 4.63 µM | TGI [23]: > 100 µM | GI50 [24]: 3.72 µM | TGI [24]: 20.5 µM | GI50 [25]: 2.83 µM | TGI [25]: 12.4 µM | GI50 [26]: 2.29 µM | TGI [26]: 7.99 µM | GI50 [27]: 1.46 µM | TGI [27]: 10.3 µM | GI50 [28]: 2 µM | TGI [28]: 11.6 µM | GI50 [29]: 0.142 µM | TGI [29]: 0.428 µM | GI50 [30]: 7.08 µM | TGI [30]: > 100 µM | GI50 [31]: 0.791 µM | TGI [31]: 2.98 µM | GI50 [32]: 2.87 µM | TGI [32]: 17 µM | GI50 [33]: 1.65 µM | TGI [33]: 4.32 µM | GI50 [34]: 2.96 µM | TGI [34]: 15.1 µM | GI50 [35]: 4.08 µM | TGI [35]: 28.5 µM | GI50 [36]: 3.69 µM | TGI [36]: 15.8 µM | GI50 [37]: 1.07 µM | TGI [37]: 2.95 µM | GI50 [38]: 0.526 µM | TGI [38]: 5.89 µM | GI50 [39]: 0.272 µM | TGI [39]: 0.823 µM | GI50 [40]: 0.392 µM | TGI [40]: 1.71 µM | GI50 [41]: 9.87 µM | TGI [41]: 36.5 µM | GI50 [42]: 2.72 µM | TGI [42]: 9.7 µM | GI50 [43]: 0.555 µM | TGI [43]: 5.83 µM | GI50 [44]: 2.55 µM | TGI [44]: 20.1 µM | GI50 [45]: 1.69 µM | TGI [45]: 4.1 µM | GI50 [46]: 1.09 µM | TGI [46]: 18.4 µM | GI50 [47]: 3.07 µM | TGI [47]: 21.7 µM | GI50 [57]: 2.72 µM | TGI [57]: 13 µM | GI50 [48]: 1.87 µM | TGI [48]: 5.6 µM | GI50 [49]: 2.69 µM | TGI [49]: 15 µM | GI50 [50]: 1.53 µM | TGI [50]: 11.9 µM | GI50 [51]: 1.98 µM | TGI [51]: 10.1 µM | GI50 [52]: 2.23 µM | TGI [52]: 7.94 µM | GI50 [53]: 2.54 µM | TGI [53]: 20.2 µM | GI50 [54]: 4.85 µM | TGI [54]: 60.6 µM

Source: PubChem BioAssay (NCI)
